What follows are compounds tested against ROCK2 (Homo sapiens, UniProt O75116) (assay: ROCK assay: phosphorylation of FITC peptide substrate, LABCHIP 3000 mobility shift). Conditions: 5 μM ATP, 1.5 μM peptide substrate; read-out: ROCK2 Activity (ROCK IC50 range).
Chain of ROCK2 (O75116 whole entry, species assumed): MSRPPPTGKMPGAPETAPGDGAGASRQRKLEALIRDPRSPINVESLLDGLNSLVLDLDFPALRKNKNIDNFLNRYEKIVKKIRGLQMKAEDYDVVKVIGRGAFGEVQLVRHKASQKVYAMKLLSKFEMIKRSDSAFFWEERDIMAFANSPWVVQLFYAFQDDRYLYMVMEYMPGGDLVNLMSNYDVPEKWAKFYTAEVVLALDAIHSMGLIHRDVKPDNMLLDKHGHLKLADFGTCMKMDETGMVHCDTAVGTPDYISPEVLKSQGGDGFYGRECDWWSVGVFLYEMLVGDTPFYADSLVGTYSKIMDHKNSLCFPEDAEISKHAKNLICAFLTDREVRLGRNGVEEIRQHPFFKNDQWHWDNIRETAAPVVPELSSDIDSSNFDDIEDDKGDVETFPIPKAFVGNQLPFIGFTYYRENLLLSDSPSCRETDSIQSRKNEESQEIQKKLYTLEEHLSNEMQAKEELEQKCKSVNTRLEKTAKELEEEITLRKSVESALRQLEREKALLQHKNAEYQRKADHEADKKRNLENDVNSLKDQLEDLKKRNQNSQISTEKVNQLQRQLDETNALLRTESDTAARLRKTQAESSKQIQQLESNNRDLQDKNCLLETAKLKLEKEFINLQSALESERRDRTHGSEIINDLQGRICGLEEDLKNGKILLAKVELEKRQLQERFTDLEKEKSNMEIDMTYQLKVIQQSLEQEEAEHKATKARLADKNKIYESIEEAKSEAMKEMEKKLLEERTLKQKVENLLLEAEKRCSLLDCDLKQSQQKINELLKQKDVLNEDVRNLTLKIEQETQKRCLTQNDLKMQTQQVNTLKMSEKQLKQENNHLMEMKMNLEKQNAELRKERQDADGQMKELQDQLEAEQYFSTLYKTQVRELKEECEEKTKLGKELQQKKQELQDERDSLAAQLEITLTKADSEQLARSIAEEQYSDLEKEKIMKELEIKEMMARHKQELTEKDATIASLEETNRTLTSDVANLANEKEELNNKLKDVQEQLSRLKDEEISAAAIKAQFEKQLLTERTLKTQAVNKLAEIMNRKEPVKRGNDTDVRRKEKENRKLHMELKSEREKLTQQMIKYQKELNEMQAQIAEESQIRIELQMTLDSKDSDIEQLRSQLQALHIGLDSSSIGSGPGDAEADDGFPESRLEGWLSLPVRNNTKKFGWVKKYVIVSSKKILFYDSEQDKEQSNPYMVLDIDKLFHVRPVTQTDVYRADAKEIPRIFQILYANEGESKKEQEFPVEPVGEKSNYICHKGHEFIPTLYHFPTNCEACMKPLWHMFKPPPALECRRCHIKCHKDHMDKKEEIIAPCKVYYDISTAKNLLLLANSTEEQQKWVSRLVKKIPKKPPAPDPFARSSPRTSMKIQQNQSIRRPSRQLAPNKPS
Assay type: biochemical
Experimental: The effectiveness of compounds of the present invention as ROCK inhibitors can be determined in a 30 μL assay containing 20 mM HEPES, pH 7.5, 20 mM MgCl2, 0.015% Brij-35, 4 mM DTT, 5 μM ATP and 1.5 μM peptide substrate (FITC-AHA-AKRRRLSSLRA-OH). Compounds were dissolved in DMSO so that the final concentration of DMSO was <2%, and the reaction was initiated with Rho kinase variants. After incubation, the reaction was terminated by the addition of EDTA and the phosphorylated and non-phosphorylated peptides separated using a LABCHIP® 3000 Reader (Caliper Life Sciences). […] Compounds were tested in dose-response format, and the inhibition of kinase activity was calculated at each concentration of compound. The inhibition data were fit using a curve-fitting program to determine the IC50; i.e., the concentration of compound required to inhibit 50% of kinase activity.
Representative Examples were tested in the ROCK assay described above and found having ROCK inhibitory activity.
In the case of `CC(C)(O)Cn1nc(C(=O)NC2CC3(C2)CC(c2n[nH]c(=O)c4ccccc24)C3)c2cc(F)ccc21` [Example 65, 5-fluoro-1-(2-hydroxy-2-methylpropyl)-N-((aR)-6-(4-oxo-3,4-dihydrophthalazin-1-yl)spiro[3.3]heptan-2-yl)-1H-indazole-3-carboxamide], the IC50 is reported as 2.01 to 5 nM. `CC(C)(O)Cn1cc(C(=O)NC2CC3(C2)CC(c2n[nH]c(=O)c4ccccc24)C3)c2cccnc21` [Example 66, 1-(2-hydroxy-2-methylpropyl)-N-((aR)-6-(4-oxo-3,4-dihydrophthalazin-1-yl)spiro[3.3]heptan-2-yl)-1H-pyrrolo[2,3-b]pyridine-3-carboxamide] showed an IC50 of 5.1 to 15 nM. Work on `CC(C)(O)COc1ccc2c(C(=O)NC3CC4(C3)CC(c3n[nH]c(=O)c5ccccc35)C4)cnn2c1` [Example 67, 6-(2-hydroxy-2-methylpropoxy)-N-((aR)-6-(4-oxo-3,4-dihydrophthalazin-1-yl)spiro[3.3]heptan-2-yl)pyrazolo[1,5-a]pyridine-3-carboxamide] yielded an IC50 of 2.01 to 5 nM. In the case of `O=C(NC1CC2(C1)CC(c1n[nH]c(=O)c3ccccc13)C2)c1cnn2cc(OCCN3CCOCC3)ccc12` [Example 68, 6-(2-morpholinoethoxy)-N-((aR)-6-(4-oxo-3,4-dihydrophthalazin-1-yl)spiro[3.3]heptan-2-yl)pyrazolo[1,5-a]pyridine-3-carboxamide], the IC50 is reported as 2.01 to 5 nM. Compound `O=C(NC1CC2(C1)CC(c1n[nH]c(=O)c3ccccc13)C2)c1cnc(N2CCOCC2)s1` [Example 69, 2-morpholino-N-((aR)-6-(4-oxo-3,4-dihydrophthalazin-1-yl)spiro[3.3]heptan-2-yl)thiazole-5-carboxamide] has an IC50 of 2.01 to 5 nM. Compound `O=C(NC1CC2(C1)CC(c1n[nH]c(=O)c3ccccc13)C2)c1cnc(N2CCCC2)s1` [Example 70, N-((aR)-6-(4-oxo-3,4-dihydrophthalazin-1-yl)spiro[3.3]heptan-2-yl)-2-(pyrrolidin-1-yl)thiazole-5-carboxamide] has an IC50 of 2.01 to 5 nM. `O=C(NC1CC2(C1)CC(c1n[nH]c(=O)c3ccccc13)C2)c1noc2ccccc12` [Example 71, N-((aR)-6-(4-oxo-3,4-dihydrophthalazin-1-yl)spiro[3.3]heptan-2-yl)benzo[d]isoxazole-3-carboxamide] showed an IC50 of 5.1 to 15 nM. Work on `CC(C)(O)Cn1cc(C(=O)NC2CC3(C2)CC(c2n[nH]c(=O)c4ccccc24)C3)c2ccccc21` [Example 72, 1-(2-hydroxy-2-methylpropyl)-N-((aR)-6-(4-oxo-3,4-dihydrophthalazin-1-yl)spiro[3.3]heptan-2-yl)-1H-indole-3-carboxamide] yielded an IC50 of 0.2 to 2 nM. With `O=C(NC1CC2(C1)CC(c1n[nH]c(=O)c3ccccc13)C2)c1cnn2ccc(OCCN3CCOCC3)cc12` [Example 73, 5-(2-morpholinoethoxy)-N-((aR)-6-(4-oxo-3,4-dihydrophthalazin-1-yl)spiro[3.3]heptan-2-yl)pyrazolo[1,5-a]pyridine-3-carboxamide] the IC50 was 2.01 to 5 nM. In the case of `O=C(NC1CC2(C1)CC(c1n[nH]c(=O)c3ccccc13)C2)c1cnn2ccccc12` [Example 74, N-((aR)-6-(4-oxo-3,4-dihydrophthalazin-1-yl)spiro[3.3]heptan-2-yl)pyrazolo[1,5-a]pyridine-3-carboxamide], the IC50 is reported as 2.01 to 5 nM. `COCC(O)COc1ccn2ncc(C(=O)NC3CC4(C3)CC(c3n[nH]c(=O)c5ccccc35)C4)c2c1` [Example 75, 5-(2-hydroxy-3-methoxypropoxy)-N-((aR)-6-(4-oxo-3,4-dihydrophthalazin-1-yl)spiro[3.3]heptan-2-yl)pyrazolo[1,5-a]pyridine-3-carboxamide] gave an IC50 of 15.1 to 100 nM. `O=C(NC1CC2(C1)CC(c1n[nH]c(=O)c3ccccc13)C2)c1cnn2cc(N3CCOCC3)ccc12` [Example 76, 6-morpholino-N-((aR)-6-(4-oxo-3,4-dihydrophthalazin-1-yl)spiro[3.3]heptan-2-yl)pyrazolo[1,5-a]pyridine-3-carboxamide] showed an IC50 of 2.01 to 5 nM. In the case of `O=C(NC1CC2(C1)CC(c1n[nH]c(=O)c3ccccc13)C2)c1cnn2ccc(OCCO)cc12` [Example 77, 5-(2-hydroxyethoxy)-N-((aR)-6-(4-oxo-3,4-dihydrophthalazin-1-yl)spiro[3.3]heptan-2-yl)pyrazolo[1,5-a]pyridine-3-carboxamide], the IC50 is reported as 15.1 to 100 nM. For `O=C(NC1CC2(C1)CC(c1n[nH]c(=O)c3ccccc13)C2)c1onc2ccccc12` [Example 78, N-((aR)-6-(4-oxo-3,4-dihydrophthalazin-1-yl)spiro[3.3]heptan-2-yl)benzo[c]isoxazole-3-carboxamide], the IC50 was 5.1 to 15 nM. With `O=C(NC1CC2(C1)CC(c1n[nH]c(=O)c3ccccc13)C2)c1cnn2cc(OC(F)F)ccc12` [Example 79, 6-(difluoromethoxy)-N-((aR)-6-(4-oxo-3,4-dihydrophthalazin-1-yl)spiro[3.3]heptan-2-yl)pyrazolo[1,5-a]pyridine-3-carboxamide] the IC50 was 2.01 to 5 nM. With `O=C(NC1CC2(C1)CC(c1n[nH]c(=O)c3ccccc13)C2)c1cnn2cc(OCC(F)F)ccc12` [Example 80, 6-(2,2-difluoroethoxy)-N-((aR)-6-(4-oxo-3,4-dihydrophthalazin-1-yl)spiro[3.3]heptan-2-yl)pyrazolo[1,5-a]pyridine-3-carboxamide] the IC50 was 0.2 to 2 nM. In the case of `O=C(NC1CC2(C1)CC(c1n[nH]c(=O)c3ccccc13)C2)c1cnn2cc(OCCn3cccn3)ccc12` [Example 81, 6-(2-(1H-pyrazol-1-yl)ethoxy)-N-((aR)-6-(4-oxo-3,4-dihydrophthalazin-1-yl)spiro[3.3]heptan-2-yl)pyrazolo[1,5-a]pyridine-3-carboxamide], the IC50 is reported as 0.2 to 2 nM. `O=C(NC1CC2(C1)CC(c1n[nH]c(=O)c3ccccc13)C2)c1cnn2cc(N3CCC(F)(F)CC3)ccc12` [Example 82, 6-(4,4-difluoropiperidin-1-yl)-N-((aR)-6-(4-oxo-3,4-dihydrophthalazin-1-yl)spiro[3.3]heptan-2-yl)pyrazolo[1,5-a]pyridine-3-carboxamide] was tested, and the IC50 was 2.01 to 5 nM. Work on `O=C(NC1CC2(C1)CC(c1n[nH]c(=O)c3ccccc13)C2)c1cnn2cc(OCCN3CCCC3)ccc12` [Example 83, N-((aR)-6-(4-oxo-3,4-dihydrophthalazin-1-yl)spiro[3.3]heptan-2-yl)-6-(2-(pyrrolidin-1-yl)ethoxy)pyrazolo[1,5-a]pyridine-3-carboxamide] yielded an IC50 of 0.2 to 2 nM. For `O=C(NC1CC2(C1)CC(c1n[nH]c(=O)c3ccccc13)C2)c1cnn2ccc(N3CCOCC3)cc12` [Example 84, 5-morpholino-N-((aR)-6-(4-oxo-3,4-dihydrophthalazin-1-yl)spiro[3.3]heptan-2-yl)pyrazolo[1,5-a]pyridine-3-carboxamide], the IC50 was 5.1 to 15 nM. `Cn1cc(-c2ccn3ncc(C(=O)NC4CC5(C4)CC(c4n[nH]c(=O)c6ccccc46)C5)c3c2)cn1` [Example 85, 5-(1-methyl-1H-pyrazol-4-yl)-N-((aR)-6-(4-oxo-3,4-dihydrophthalazin-1-yl)spiro[3.3]heptan-2-yl)pyrazolo[1,5-a]pyridine-3-carboxamide] was tested, and the IC50 was 2.01 to 5 nM. Work on `CN1CCN(c2ccc3c(C(=O)NC4CC5(C4)CC(c4n[nH]c(=O)c6ccccc46)C5)cnn3c2)CC1` [Example 86, 6-(4-methylpiperazin-1-yl)-N-((aR)-6-(4-oxo-3,4-dihydrophthalazin-1-yl)spiro[3.3]heptan-2-yl)pyrazolo[1,5-a]pyridine-3-carboxamide] yielded an IC50 of 0.2 to 2 nM. Compound `O=C(NC1CC2(C1)CC(c1n[nH]c(=O)c3ccccc13)C2)c1cnn2cc(N3CCCC3)ccc12` [Example 87, N-((aR)-6-(4-oxo-3,4-dihydrophthalazin-1-yl)spiro[3.3]heptan-2-yl)-6-(pyrrolidin-1-yl)pyrazolo[1,5-a]pyridine-3-carboxamide] has an IC50 of 0.2 to 2 nM. In the case of `O=C(NC1CC2(C1)CC(c1n[nH]c(=O)c3ccccc13)C2)c1cnn2cc(N3CCC(F)C3)ccc12` [Example 88, 6-((R)-3-fluoropyrrolidin-1-yl)-N-((aR)-6-(4-oxo-3,4-dihydrophthalazin-1-yl)spiro[3.3]heptan-2-yl)pyrazolo[1,5-a]pyridine-3-carboxamide], the IC50 is reported as 0.2 to 2 nM. `O=C(NC1CC2(C1)CC(c1n[nH]c(=O)c3ccccc13)C2)c1cnn2cc(N3CCC(F)C3)ccc12` [Example 89, 6-((S)-3-fluoropyrrolidin-1-yl)-N-((aR)-6-(4-oxo-3,4-dihydrophthalazin-1-yl)spiro[3.3]heptan-2-yl)pyrazolo[1,5-a]pyridine-3-carboxamide] gave an IC50 of 0.2 to 2 nM. Compound `O=C(NC1CC2(C1)CC(c1n[nH]c(=O)c3ccccc13)C2)c1cnn2cc(N3CCC(F)(F)C3)ccc12` [Example 90, 6-(3,3-difluoropyrrolidin-1-yl)-N-((aR)-6-(4-oxo-3,4-dihydrophthalazin-1-yl)spiro[3.3]heptan-2-yl)pyrazolo[1,5-a]pyridine-3-carboxamide] has an IC50 of 0.2 to 2 nM. With `O=C(NC1CC2(C1)CC(c1n[nH]c(=O)c3ccccc13)C2)c1cnn2cc(N3CC(F)C3)ccc12` [Example 91, 6-(3-fluoroazetidin-1-yl)-N-((aR)-6-(4-oxo-3,4-dihydrophthalazin-1-yl)spiro[3.3]heptan-2-yl)pyrazolo[1,5-a]pyridine-3-carboxamide] the IC50 was 0.2 to 2 nM. Compound `O=C(NC1CC2(C1)CC(c1n[nH]c(=O)c3ccccc13)C2)c1cnn2cc(N3CC(F)(F)C3)ccc12` [Example 92, 6-(3,3-difluoroazetidin-1-yl)-N-((aR)-6-(4-oxo-3,4-dihydrophthalazin-1-yl)spiro[3.3]heptan-2-yl)pyrazolo[1,5-a]pyridine-3-carboxamide] has an IC50 of 0.2 to 2 nM. `O=C(NC1CC2(C1)CC(c1n[nH]c(=O)c3ccccc13)C2)c1cn2c(n1)sc1ccccc12` [Example 93, N-((aR)-6-(4-oxo-3,4-dihydrophthalazin-1-yl)spiro[3.3]heptan-2-yl)benzo[d]imidazo[2,1-b]thiazole-2-carboxamide] gave an IC50 of 2.01 to 5 nM.

Source: US9902702B2, “Spirocycloheptanes as inhibitors of rock” (BRISTOL-MYERS SQUIBB COMPANY, priority 2014, dated 2018)
